PMC6496074, “The Evolution of Azole Resistance in Candida albicans Sterol 14α-Demethylase (CYP51) through Incremental Amino Acid Substitutions” (Antimicrobial Agents and Chemotherapy, 2019)
Values joined by “and” are separate entries in the source; they are usually repeats but may differ in a detail not shown here. Equal entries are not always repeated.

Experiments:
Test in all cases: CYP51 reconstitution assay
Format in all cases: biochemical
[1] = target: T1, CaCYP51 V437I (Candida albicans, UniProt P10613, V437I)
T1 construct: made in house; host or cells: E. coli DH5α (pCWori+)
T1 sequence (P10613 whole entry, looked up, stated change not applied): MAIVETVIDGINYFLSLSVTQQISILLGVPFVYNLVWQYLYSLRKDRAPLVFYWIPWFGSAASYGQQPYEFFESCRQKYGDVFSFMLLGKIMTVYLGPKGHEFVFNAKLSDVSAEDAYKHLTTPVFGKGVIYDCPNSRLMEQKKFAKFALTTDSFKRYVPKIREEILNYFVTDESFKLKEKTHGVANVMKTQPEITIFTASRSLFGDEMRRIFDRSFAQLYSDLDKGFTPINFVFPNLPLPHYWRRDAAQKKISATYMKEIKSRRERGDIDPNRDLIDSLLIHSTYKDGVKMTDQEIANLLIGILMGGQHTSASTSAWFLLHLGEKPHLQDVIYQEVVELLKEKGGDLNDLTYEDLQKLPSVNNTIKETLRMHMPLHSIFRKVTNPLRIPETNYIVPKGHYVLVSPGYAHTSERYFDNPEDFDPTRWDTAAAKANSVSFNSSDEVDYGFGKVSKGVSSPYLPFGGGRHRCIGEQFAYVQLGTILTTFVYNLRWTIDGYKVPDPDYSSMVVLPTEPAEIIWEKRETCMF
Procedure: (§1) Azole antifungal agents were added in 2.5 μl dimethyl sulfoxide, followed by 10 min of incubation at 37°C prior to assay initiation with 4 mM β-NADPH-Na4. The samples were then shaken for 15 min at 37°C. Sterol metabolites were recovered by extraction with ethyl acetate, followed by derivatization with 0.1 ml N,O-bis(trimethylsilyl)trifluoroacetamide (BSTFA)–trimethylchlorosilane (TMCS) (99:1) and 0.3 ml anhydrous pyridine (2 h at 80°C), prior to analysis by gas chromatography-mass spectrometry (GC-MS) ([52]). IC50 determinations were performed in duplicate.

[2] = target: T2, CaCYP51 R467K (Candida albicans, UniProt P10613, R467K)
T2 construct: made in house; host or cells: E. coli DH5α (pCWori+)
Procedure: as §1

[3] = target: T3, CaCYP51 V456I (Candida albicans, UniProt P10613, V456I)
T3 construct: made in house; host or cells: E. coli DH5α (pCWori+)
Procedure: as §1

[4] = target: T4, CaCYP51 D278N (Candida albicans, UniProt P10613, D278N)
T4 construct: made in house; host or cells: E. coli DH5α (pCWori+)
T4 sequence (P10613 whole entry, looked up, stated change not applied): as above
Procedure: as §1

[5] = target: T5, CaCYP51 G307S+G450E (Candida albicans, UniProt P10613, G307S/G450E)
T5 construct: made in house; host or cells: E. coli DH5α (pCWori+)
Procedure: as §1

[6] = target: T6, CaCYP51 Wild type (Candida albicans, UniProt P10613); conditions: Wild type
T6 construct: made in house; host or cells: E. coli DH5α (pCWori+)
T6 sequence (P10613 whole entry, looked up, natural form): as the sequence (P10613 whole entry, looked up, stated change not applied) above
Procedure: as §1

[7] = target: T7, CaCYP51 V488I (Candida albicans, UniProt P10613, V488I); conditions: mean ± SD, duplicate
T7 construct: made in house; host or cells: E. coli DH5α (pCWori+)
Procedure: as §1

[8] = target: T8, CaCYP51 D278N+G464S (Candida albicans, UniProt P10613, D278N/G464S)
T8 construct: made in house; host or cells: E. coli DH5α (pCWori+)
T8 sequence (P10613 whole entry, looked up, stated change not applied): as above
Procedure: as §1

[9] = target: T9, CaCYP51 S279F (Candida albicans, UniProt P10613, S279F)
T9 construct: made in house; host or cells: E. coli DH5α (pCWori+)
Procedure: as §1

[10] = target: T10, CaCYP51 F449Y (Candida albicans, UniProt P10613, F449Y)
T10 construct: made in house; host or cells: E. coli DH5α (pCWori+)
Procedure: as §1

[11] = target: T11, CaCYP51 I471T (Candida albicans, UniProt P10613, I471T)
T11 construct: made in house; host or cells: E. coli DH5α (pCWori+)
T11 sequence (P10613 whole entry, looked up, stated change not applied): as above
Procedure: as §1

[12] = target: T12, CaCYP51 F145L (Candida albicans, UniProt P10613, F145L)
T12 construct: made in house; host or cells: E. coli DH5α (pCWori+)
Procedure: as §1

[13] = target: T13, CaCYP51 G307S (Candida albicans, UniProt P10613, G307S)
T13 construct: made in house; host or cells: E. coli DH5α (pCWori+)
Procedure: as §1

[14] = target: T14, CaCYP51 G448E (Candida albicans, UniProt P10613, G448E)
T14 construct: made in house; host or cells: E. coli DH5α (pCWori+)
T14 sequence (P10613 whole entry, looked up, stated change not applied): as above
Procedure: as §1

[15] = target: T15, CaCYP51 G464S (Candida albicans, UniProt P10613, G464S)
T15 construct: made in house; host or cells: E. coli DH5α (pCWori+)
Procedure: as §1

[16] = target: T16, CaCYP51 Y257H (Candida albicans, UniProt P10613, Y257H)
T16 construct: made in house; host or cells: E. coli DH5α (pCWori+)
T16 sequence (P10613 whole entry, looked up, stated change not applied): as above
Procedure: as §1

[17] = target: T17, CaCYP51 Y132H+K143R (Candida albicans, UniProt P10613, K143R/Y132H)
T17 construct: made in house; host or cells: E. coli DH5α (pCWori+)
Procedure: as §1

[18] = target: T18, CaCYP51 K143R (Candida albicans, UniProt P10613, K143R); conditions: mean ± SD, duplicate
T18 construct: made in house; host or cells: E. coli DH5α (pCWori+)
Procedure: as §1

[19] = target: T19, CaCYP51 G450E (Candida albicans, UniProt P10613, G450E)
T19 construct: made in house; host or cells: E. coli DH5α (pCWori+)
T19 sequence (P10613 whole entry, looked up, stated change not applied): as above
Procedure: as §1

[20] = target: T20, CaCYP51 Y118A (Candida albicans, UniProt P10613, Y118A)
T20 construct: made in house; host or cells: E. coli DH5α (pCWori+)
Procedure: as §1

[21] = target: T21, CaCYP51 Q474K (Candida albicans, UniProt P10613, Q474K)
T21 construct: made in house; host or cells: E. coli DH5α (pCWori+)
Procedure: as §1

[22] = target: T22, CaCYP51 S405F (Candida albicans, UniProt P10613, S405F)
T22 construct: made in house; host or cells: E. coli DH5α (pCWori+)
Procedure: as §1

[23] = target: T23, CaCYP51 Y132F (Candida albicans, UniProt P10613, Y132F)
T23 construct: made in house; host or cells: E. coli DH5α (pCWori+)
Procedure: as §1

[24] = target: T24, CaCYP51 Y447H (Candida albicans, UniProt P10613, Y447H)
T24 construct: made in house; host or cells: E. coli DH5α (pCWori+)
Procedure: as §1

[25] = target: T25, CaCYP51 P230L (Candida albicans, UniProt P10613, P230L)
T25 construct: made in house; host or cells: E. coli DH5α (pCWori+)
T25 sequence (P10613 whole entry, looked up, stated change not applied): as above
Procedure: as §1

[26] = 0.25 h, 4 μM triazole, % of activity without triazole, read-out: Residual CYP51 activity (%) ± SD

CCC(C)n1ncn(-c2ccc(N3CCN(c4ccc(OCC5COC(Cn6cncn6)(c6ccc(Cl)cc6Cl)O5)cc4)CC3)cc2)c1=O (stereo not drawn) [Itraconazole, itraconazole]
remaining activity at 4 µM [1, 26]: 0.13 ± 0.02%
IC50 ([1]; mean ± SD, duplicate): 293 ± 22 nM
remaining activity at 4 µM [2, 26]: 0.45 ± 0.17%
IC50 ([2]; mean ± SD, duplicate): 235 ± 18 nM
remaining activity at 4 µM [3, 26]: 3.21 ± 0.07%
IC50 ([3]; mean ± SD, duplicate): 603 ± 2 nM
remaining activity at 4 µM [4, 26]: 3 ± 0.19%
IC50 ([4]; mean ± SD, duplicate): 545 ± 44 nM
remaining activity at 4 µM [5, 26]: 0.2 ± 0.04%
IC50 ([5]; mean ± SD, duplicate): 318 ± 17 nM
remaining activity at 4 µM [6, 26]: 0.03 ± 0.02%
IC50 ([6]; mean ± SD, duplicate, read-out: IC50): 390 nM and 389 nM
IC50 [7]: 449 ± 16 nM
remaining activity at 4 µM [8, 26]: 3.19 ± 0.46%
IC50 ([8]; mean ± SD, duplicate): 403 ± 11 nM
remaining activity at 4 µM [9, 26]: 5.97 ± 0.35%
IC50 ([9]; mean ± SD, duplicate): 569 ± 121 nM
remaining activity at 4 µM [10, 26]: 0.84 ± 0.57%
IC50 ([10]; mean ± SD, duplicate): 222 ± 11 nM
remaining activity at 4 µM [11, 26]: 1.21 ± 0.01%
IC50 ([11]; mean ± SD, duplicate): 218 ± 2 nM
remaining activity at 4 µM [12, 26]: 1.99 ± 0.04%
IC50 ([12]; mean ± SD, duplicate): 300 ± 13 nM
remaining activity at 4 µM [13, 26]: 0.53 ± 0.21%
IC50 ([13]; mean ± SD, duplicate): 225 ± 7 nM
remaining activity at 4 µM [14, 26]: 1.75 ± 0.26%
IC50 ([14]; mean ± SD, duplicate): 238 ± 13 nM
remaining activity at 4 µM [15, 26]: 0.54 ± 0.11%
IC50 ([15]; mean ± SD, duplicate): 282 ± 6 nM
remaining activity at 4 µM [16, 26]: 1.37 ± 0.28%
IC50 ([16]; mean ± SD, duplicate): 336 ± 14 nM
remaining activity at 4 µM [17, 26]: 0.7 ± 0.03%
IC50 ([17]; mean ± SD, duplicate): 237 ± 7 nM
IC50 [18]: 450 ± 16 nM
remaining activity at 4 µM [19, 26]: 7.66 ± 0.54%
IC50 ([19]; mean ± SD, duplicate): 458 ± 70 nM
remaining activity at 4 µM [20, 26]: 1.3 ± 0.59%
IC50 ([20]; mean ± SD, duplicate): 170 ± 16 nM
remaining activity at 4 µM [21, 26]: 0.49 ± 0.04%
IC50 ([21]; mean ± SD, duplicate): 246 ± 6 nM
remaining activity at 4 µM [22, 26]: 2.73 ± 0.13%
IC50 ([22]; mean ± SD, duplicate): 350 ± 19 nM
remaining activity at 4 µM [23, 26]: 0.19 ± 0.04%
IC50 ([23]; mean ± SD, duplicate): 309 ± 3 nM
remaining activity at 4 µM [24, 26]: 1.45 ± 0.06%
IC50 ([24]; mean ± SD, duplicate): 299 ± 39 nM
remaining activity at 4 µM [25, 26]: 0.06 ± 0.01%
IC50 ([25]; mean ± SD, duplicate): 265 ± 38 nM
